Assay results: US9969749B2, “Inhibitors of IRAK4 activity” (MERCK SHARP & DOHME CORP., priority 2014, dated 2018)

Each compound was assayed against IRAK4 (Homo sapiens (Human), UniProt Q9NWZ3) (assay: IRAK4 Kinase Assay (IMAP fluorescence polarization)). Conditions: 0.5 nM GST tagged IRAK4, 100 μM ATP, 100 nM fluorescent peptide substrate RP7030, 30 minutes at 25° C.
Type: biochemical
Description: The kinase activity of IRAK4 is determined by its ability to catalyze the phosphorylation of a fluorescent polypeptide substrate. The extent of phosphorylation is measured using the IMAP technology (Molecular Devices) where the phosphorylated fluorescent substrate binds to the large M(III)-based nanoparticles which reduces the rotational speed of the substrate and thus increases its fluorescent polarization (FP).
20 μL reaction mixture contains 10 mM TriHCl, pH 7.2, 0.5 nM GST tagged IRAK4 (SignalChem), 100 nM fluorescent peptide substrate (RP7030, Molecular Devices), 100 μM ATP, 1 mM DDT, 1 mM MgCl2, and 0.01% Tween 20. The reaction is initiated by the addition of ATP. After incubation for 30 minutes at 25° C., 60 μL of Progressive IMAP Reagent (Molecular Devices) is added to stop the reaction. Change in RP7030's FP is determined by a FP reader (Analyst HT, LJL BioSystems).

Sequence of IRAK4 (Q9NWZ3 whole entry): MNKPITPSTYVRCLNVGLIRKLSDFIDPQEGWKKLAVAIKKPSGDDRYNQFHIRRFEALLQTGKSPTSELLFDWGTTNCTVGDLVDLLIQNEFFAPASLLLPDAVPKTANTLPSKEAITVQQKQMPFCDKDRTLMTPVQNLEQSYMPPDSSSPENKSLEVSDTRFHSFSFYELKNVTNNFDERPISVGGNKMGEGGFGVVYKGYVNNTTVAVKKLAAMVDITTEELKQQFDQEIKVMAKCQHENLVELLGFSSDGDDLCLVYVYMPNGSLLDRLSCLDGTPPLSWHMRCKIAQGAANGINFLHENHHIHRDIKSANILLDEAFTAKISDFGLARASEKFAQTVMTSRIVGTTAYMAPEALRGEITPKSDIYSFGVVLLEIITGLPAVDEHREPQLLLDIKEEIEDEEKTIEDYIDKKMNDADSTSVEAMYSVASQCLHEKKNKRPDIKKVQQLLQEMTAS

IC50 | SMILES
1 nM | Oc1cc(-c2ccc3ncnc(N[C@H]4CC[C@H](N5CCOCC5)CC4)c3c2)cnc1Cl [Example 1-100, 2-chloro-5-(4-{[trans-4-(morpholin-4-yl)cyclohexyl]amino}quinazolin-6-yl)pyridin-3-ol]
11 nM | CN(C)[C@H]1CC[C@H](Nc2ncnc3ccc(-c4ccncc4F)cc23)CC1 [Example 1-34, trans-N′-[6-(3-fluoropyridin-4-yl)quinazolin-4-yl]-N,N-dimethylcyclohexane-1,4-diamine]
3 nM | CN(C)[C@H]1CC[C@H](Nc2ncnc3ccc(-c4cc(O)cc(F)c4)cc23)CC1 [Example 1-63, 3-(4-{[trans-4-(dimethylamino)cyclohexyl]amino}quinazolin-6-yl)-5-fluorophenol]
< 0.5 nM | C[C@@H]1CN([C@H]2CC[C@H](Nc3ncnc4ccc(-c5cncc(O)c5)cc34)CC2)C[C@H](C)O1 [Example 5-6, 5-[4-({trans-4-[(2R,6S)-2,6-dimethylmorpholin-4-yl]cyclohexyl}amino)quinazolin-6-yl]pyridin-3-ol]
62 nM | N#Cc1nn[nH]c1-c1ccc2ncnc(N[C@H]3CC[C@H](N4CCOCC4)CC3)c2c1 [Example 2-11, 5-{4-[(trans-4-morpholin-4-ylcyclohexyl)amino]quinazolin-6-yl}-1H-1,2,3-triazole-4-carbonitrile]
27 nM | Cc1cc(-c2ccc3ncnc(N[C@H]4CC[C@H](N(C)C)CC4)c3c2)cnn1 [Example 1-1, Trans-N,N-dimethyl-N′-[6-(6-methylpyridazin-4-yl)quinazolin-4-yl]cyclohexane-1,4-diamine]
2 nM | CNc1cc(-c2ccc3ncnc(N[C@H]4CC[C@H](N5CCC(F)CC5)CC4)c3c2)cnc1F [Example 5-29, 6-[6-fluoro-5-(methylamino)pyridin-3-yl]-N-[trans-4-(4-fluoropiperidin-1-yl)cyclohexyl]quinazolin-4-amine]
20 nM | COc1cc(-c2ccc3ncnc(N[C@H]4CC[C@H](N5CCOCC5)CC4)c3c2)cnc1F [Example 2-29, 6-(6-fluoro-5-methoxypyridin-3-yl)-N-[trans-4-(morpholin-4-yl)cyclohexyl]quinazolin-4-amine]
562 nM | Cn1ccnc1-c1ccc2ncnc(N[C@H]3CC[C@H](N4CCOCC4)CC3)c2c1 [Example 2-26, 6-(1-methyl-1H-imidazol-2-yl)-N-[trans-4-(morpholin-4-yl)cyclohexyl]quinazolin-4-amine]
1 nM | CNc1cc(-c2ccc3ncnc(N[C@H]4CC[C@H](N5CCOCC5)CC4)c3c2)cnc1F [Example 2-32, 6-[6-fluoro-5-(methylamino)pyridin-3-yl]-N-[trans-4-(morpholin-4-yl)cyclohexyl]quinazolin-4-amine]
11 nM | CN(C)[C@H]1CC[C@H](Nc2ncnc3ccc(-c4ccnnc4)cc23)CC1 [Example 1-50, trans-N,N-dimethyl-N′-[6-(pyridazin-4-yl)quinazolin-4-yl]cyclohexane-1,4-diamine]
73 nM | CN(C)c1cc(-c2ccc3ncnc(N[C@H]4CC[C@H](N5CCOCC5)CC4)c3c2)cnc1F [Example 2-31, 6-[5-(dimethylamino)-6-fluoropyridin-3-yl]-N-[trans-4-(morpholin-4-yl)cyclohexyl]quinazolin-4-amine]
8 nM | CNc1cncc(-c2ccc3ncnc(N[C@H]4CC[C@H](N5CCN(S(C)(=O)=O)CC5)CC4)c3c2)c1 [Example 5-7, 6-[5-(methylamino)pyridin-3-yl]-N-{trans-4-[4-(methylsulfonyl)piperazin-1-yl]cyclohexyl}quinazolin-4-amine]
358 nM | CN(C)[C@H]1CC[C@H](Nc2ncnc3ccc(-c4cnn(Cc5ccncc5)c4)cc23)CC1 [Example 1-19, trans-N,N-dimethyl-N′-{6-[1-(pyridin-4-ylmethyl)-1H-pyrazol-4-yl]quinazolin-4-yl}cyclohexane-1,4-diamine]
5 nM | Oc1cc(F)cc(-c2ccc3ncnc(N[C@H]4CC[C@H](N5CCOCC5)CC4)c3c2)c1 [Example 1-66, 3-fluoro-5-{4-[(trans-4-morpholin-4-ylcyclohexyl)amino]quinazolin-6-yl}phenol]
88 nM | Cc1nc(-c2ccc3ncnc(N[C@H]4CC[C@H](N5CCOCC5)CC4)c3c2)c[nH]1 [Example 2-25, 6-(2-methyl-1H-imidazol-4-yl)-N-[trans-4-(morpholin-4-yl)cyclohexyl]quinazolin-4-amine]
83 nM | COCCOc1cncc(-c2ccc3ncnc(N[C@H]4CC[C@H](N(C)C)CC4)c3c2)c1 [Example 1-40, trans-N′-{6-[5-(2-methoxyethoxy)pyridin-3-yl]quinazolin-4-yl}-N,N-dimethylcyclohexane-1,4-diamine]
1690 nM | Cn1cnc2cc(-c3ccc4ncnc(N[C@H]5CC[C@H](N(C)C)CC5)c4c3)cnc21 [Example 1-60, trans-N,N-dimethyl-N′-[6-(3-methyl-3H-imidazo[4,5-b]pyridin-6-yl)quinazolin-4-yl]cyclohexane-1,4-diamine]
3 nM | CNc1cncc(-c2ccc3ncnc(N[C@H]4CC[C@H](N5CCC(F)(F)CC5)CC4)c3c2)c1 [Example 5-8, N-[trans-4-(4,4-difluoropiperidin-1-yl)cyclohexyl]-6-[5-(methylamino)pyridin-3-yl]quinazolin-4-amine]
1 nM | C[C@@H]1CN([C@H]2CC[C@H](Nc3ncnc4ccc(-c5cnc(F)c(N)c5)cc34)CC2)CCO1 [Example 5-24, 6-(5-amino-6-fluoropyridin-3-yl)-N-{trans-4-[(2R)-2-methylmorpholin-4-yl]cyclohexyl}quinazolin-4-amine]
1 nM | C[C@H]1CN([C@H]2CC[C@H](Nc3ncnc4ccc(-c5cnc(F)c(N)c5)cc34)CC2)CCO1 [Example 5-25, 6-(5-amino-6-fluoropyridin-3-yl)-N-{trans-4-[(2S)-2-methylmorpholin-4-yl]cyclohexyl}quinazolin-4-amine]
372 nM | CN(C)[C@H]1CC[C@H](Nc2ncnc3ccc(-c4cnn(Cc5ccccn5)c4)cc23)CC1 [Example 1-17, trans-N,N-dimethyl-N′-{6-[1-(pyridin-2-ylmethyl)-1H-pyrazol-4-yl]quinazolin-4-yl}cyclohexane-1,4-diamine]
928 nM | Oc1ncc(C(F)(F)F)cc1-c1ccc2ncnc(N[C@H]3CC[C@H](N4CCOCC4)CC3)c2c1 [Example 2-5, 3-{4-[(trans-4-morpholin-4-ylcyclohexyl)amino]quinazolin-6-yl}-5-(trifluoromethyl)pyridin-2-ol]
504 nM | CN(C)[C@H]1CC[C@H](Nc2ncnc3ccc(-c4cncc(C(=O)O)c4)cc23)CC1 [Example 1-37, 5-(4-{[trans-4-(dimethylamino)cyclohexyl]amino}quinazolin-6-yl)pyridine-3-carboxylic acid]
6730 nM | CN1CCOc2cc(-c3ccc4ncnc(N[C@H]5CC[C@H](N(C)C)CC5)c4c3)cnc21 [Example 1-57, trans-N,N-dimethyl-N′-[6-(4-methyl-3,4-dihydro-2H-pyrido[3,2-b][1,4]oxazin-7-yl)quinazolin-4-yl]cyclohexane-1,4-diamine]
9 nM | c1cc(-c2ccc3ncnc(N[C@H]4CC[C@H](N5CCOCC5)CC4)c3c2)ccn1 [Example 1-48, N-[trans-4-(morpholin-4-yl)cyclohexyl]-6-(pyridin-4-yl)quinazolin-4-amine]
